From patent US10005767B2, “Compositions and methods for inhibition of the JAK pathway” (Rigel Pharmaceuticals, Inc., priority 2009, dated 2018)
Where a name gives a salt, the structure may show the parent alone.

Test system: human primary T-cells, IL-2 stimulated proliferation (JAK-1 and JAK-3 dependent; reported as JAK3 activity)
Experiment: Human primary T-cell proliferation stimulated by IL-2 (Example 3)
Assay type: cell-based
Details: Homo sapiens, T-cell, tested under conditions described in Example 3 (IL-2 stimulated human primary T-cell proliferation); read-out: ability to inhibit JAK3 activity, IC50 range (Table V)
Procedure, shortened: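 Peripheral-blood human T-cells pre-activated via TCR/CD28, IL-2-starved overnight, then cultured 72 h at 37 °C with compound in Yssel's medium containing IL-2 (80 U/mL in cell suspension). Proliferation read as viable-cell ATP by CellTiter-Glo luminescence; reduction versus control taken as JAK pathway inhibition.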

Cc1cnc(Nc2ccc(N(C)C)nc2)nc1Nc1ccc2oc(=O)[nH]c2c1 [II-1, N4-(benzo[d]oxazol-2(3H)-on-5-yl)-N2-(6-dimethylaminopyridin-3-yl)-5-methylpyrimidine-2,4-diamine] and Cc1cnc(Nc2ccc(N3CCNC(C)C3)nc2)nc1Nc1ccc2oc(=O)[nH]c2c1 (centres unmarked) [II-12, N4-(benzo[d]oxazol-2(3H)-on-5-yl)-N2-(6-(3-methylpiperazin-1-yl)pyridin-3-yl)-5-methylpyrimidine-2,4-diamine] cannot be ordered by IC50: less than 500 nM for the first, less than 500 nM for the second.

Cc1cnc(Nc2ccc(N3C[C@H]4C[C@@H]3CN4C)nc2)nc1Nc1ccc2oc(=O)[nH]c2c1 [II-2, N4-(benzo[d]oxazol-2(3H)-on-5-yl)-N2-(6-((1R,4R)-5-methyl-2,5-diazabicyclo[2.2.1]heptan-2-yl)-pyridin-3-yl)-5-methylpyrimidine-2,4-diamine] and Cc1cnc(Nc2ccc(N3C[C@@H]4C[C@H]3CN4C)nc2)nc1Nc1ccc2oc(=O)[nH]c2c1 [II-31, N4-(benzoxazolin-2-on-5-yl)-N2-[2-((1S,4S)-5-methyl-2,5-diazabicyclo[2.2.1]heptan-2-yl)pyridin-5-yl]-5-methylpyrimidine-2,4-diamine] cannot be ordered by IC50: less than 500 nM for the first, less than 500 nM for the second.

Cc1cnc(Nc2ccc(N3CCCN(C)CC3)nc2)nc1Nc1ccc2oc(=O)[nH]c2c1 [II-3, N4-(benzo[d]oxazol-2(3H)-on-5-yl)-N2-(6-(4-methyl-1,4-diazepan-1-yl)pyridin-3-yl)-5-methylpyrimidine-2,4-diamine] and Cc1cnc(Nc2ccc(N3CCN(C)CC3)nc2)nc1Nc1ccc2oc(=O)[nH]c2c1 [II-13, N4-(benzoxazolin-2-on-5-yl)-N2-[2-(4-methylpiperazin-1-yl)pyridin-5-yl]-5-methylpyrimidine-2,4-diamine] cannot be ordered by IC50: less than 500 nM for the first, less than 500 nM for the second.

CCCn1c(=O)oc2ccc(Nc3nc(Nc4ccc(N5CCN(C)CC5)nc4)ncc3C)cc21 [II-4, N4-(3-n-propylbenzo[d]oxazol-2(3H)-on-5-yl)-N2-(6-(4-methylpiperazin-1-yl)pyridin-3-yl)-5-methylpyrimidine-2,4-diamine] and Cc1cnc(Nc2ccc(N3CCN(C)CC3)nc2)nc1Nc1ccc2oc(=O)n(C)c2c1 [II-22, N2-(6-(4-methylpiperazin-1-yl)pyridin-3-yl)-N4-(3-methyl-2-oxo-2,3-dihydrobenzo[d]oxazol-5-yl)-5-methylpyrimidine-2,4-diamine] cannot be ordered by IC50: less than 500 nM for the first, less than 500 nM for the second.

Cc1cnc(Nc2ccc(N3CCN(C(=O)OC(C)(C)C)CC3)nc2)nc1Nc1ccc2oc(=O)[nH]c2c1 [II-5, N4-(benzo[d]oxazol-2(3H)-on-5-yl)-N2-(6-(4-tert-butyloxycarbonylpiperazin-1-yl)pyridin-3-yl)-5-methylpyrimidine-2,4-diamine] and COC(=O)N1CCN(c2ccc(Nc3ncc(C)c(Nc4ccc5oc(=O)[nH]c5c4)n3)cn2)CC1 [II-9, N4-(benzo[d]oxazol-2(3H)-on-5-yl)-N2-(6-(4-methoxycarbonylpiperazin-1-yl)pyridin-3-yl)-5-methylpyrimidine-2,4-diamine] cannot be ordered by IC50: less than 500 nM for the first, less than 500 nM for the second.

Compared with Cc1cnc(Nc2ccc(N3CCC(C)CC3)nc2)nc1Nc1ccc2oc(=O)[nH]c2c1 [II-6, N4-(benzo[d]oxazol-2(3H)-on-5-yl)-N2-(6-(4-methylpiperidin-1-yl)pyridin-3-yl)-5-methylpyrimidine-2,4-diamine], Cc1cnc(Nc2ccc(N3CCNCC3)nc2)nc1Nc1ccc2oc(=O)[nH]c2c1 [II-10, N4-(benzo[d]oxazol-2(3H)-on-5-yl)-N2-(6-(piperazin-1-yl)pyridin-3-yl)-5-methylpyrimidine-2,4-diamine] is lower in IC50: greater than 10000 nM for the first, less than 500 nM for the second. The second is the more potent here.

Cc1cnc(Nc2ccc(N3CCN(C)CC3)nc2)nc1Nc1ccc2oc(=O)n(C(C)C)c2c1 [II-7, N2-(6-(4-methylpiperazin-1-yl)pyridin-3-yl)-N4-(3-isopropylbenzo[d]oxazol-2(3H)-on-5-yl)-5-methylpyrimidine-2,4-diamine] and Cc1cnc(Nc2ccc(N3CCN(C)CC3)nc2)nc1Nc1ccc2c(c1)oc(=O)n2C [II-23, N2-(6-(4-methylpiperazin-1-yl)pyridin-3-yl)-N4-(3-methyl-2-oxo-2,3-dihydrobenzo[d]oxazol-6-yl)-5-methylpyrimidine-2,4-diamine trifluoroacetate salt] cannot be ordered by IC50: less than 500 nM for the first, less than 500 nM for the second.

Cc1cnc(Nc2ccc(N3CCN(C(=O)OC(F)(F)F)CC3)nc2)nc1Nc1ccc2oc(=O)[nH]c2c1 [II-8, N4-(benzo[d]oxazol-2(3H)-on-5-yl)-N2-(6-(4-trifluoromethoxycarbonylpiperazin-1-yl)pyridin-3-yl)-5-methylpyrimidine-2,4-diamine] and CN1CCN(c2ccc(Nc3ncc(F)c(Nc4ccc5oc(=O)[nH]c5c4)n3)cn2)CC1 [II-14, N4-(benzo[d]oxazol-2(3H)-on-5-yl)-N2-[2-(4-methylpiperazin-1-yl)pyridin-5-yl]-5-fluoropyrimidine-2,4-diamine] cannot be ordered by IC50: less than 500 nM for the first, less than 500 nM for the second.

Cc1cnc(Nc2ccc(N3CCN(C(=O)OC(C)(C)C)C(C)C3)nc2)nc1Nc1ccc2oc(=O)[nH]c2c1 (centres unmarked) [II-11, N4-(benzo[d]oxazol-2(3H)-on-5-yl)-N2-(6-(3-methyl-4-tert-butoxycarbonylpiperazin-1-yl)pyridin-3-yl)-5-methylpyrimidine-2,4-diamine] and Cc1cnc(Nc2ccc(N3CCN(C)CC3)nc2)nc1Nc1ccc2[nH]c(=O)oc2c1 [II-25, 6-(5-methyl-2-(6-(4-methylpiperazin-1-yl)pyridin-3-ylamino)pyrimidin-4-ylamino)benzo[d]oxazol-2(3H)-one] cannot be ordered by IC50: less than 500 nM for the first, less than 500 nM for the second.

First: CN1CCN(c2ccc(Nc3ncc(F)c(Nc4ccc5oc(=O)n(C)c5c4)n3)cn2)CC1 [II-24, N2-(6-(4-methylpiperazin-1-yl)pyridin-3-yl)-N4-(3-methyl-2-oxo-2,3-dihydrobenzo[d]oxazol-5-yl)-5-fluoropyrimidine-2,4-diamine]
Second: Cc1cc(Nc2ncc(F)c(Nc3ccc4oc(=O)[nH]c4c3)n2)cnc1N1CCN(C)CC1 [II-30, N4-(benzoxazolin-2-on-5-yl)-N2-[3-methyl-2-(4-methylpiperazin-1-yl)pyridin-5-yl]-5-fluoropyrimidine-2,4-diamine]
The IC50 of the first is higher: 500 to 5000 nM for the first, less than 500 nM for the second. The second is the more potent here.

Cc1cnc(Nc2cnc(N3CCN(C)CC3)c(C)c2)nc1Nc1ccc2oc(=O)[nH]c2c1 [II-26, N4-(benzoxazolin-2-on-5-yl)-N2-[3-methyl-2-(4-methylpiperazin-1-yl)pyridin-5-yl]-5-methylpyrimidine-2,4-diamine] and Cc1cnc(Nc2cnc(N3C[C@@H]4C[C@H]3CN4C)c(C)c2)nc1Nc1ccc2oc(=O)[nH]c2c1 [II-28, N4-(benzoxazolin-2-on-5-yl)-N2-[3-methyl-2-((1S,4S)-5-methyl-2,5-diazabicyclo[2.2.1]heptan-2-yl)pyridin-5-yl]-5-methylpyrimidine-2,4-diamine] cannot be ordered by IC50: less than 500 nM for the first, less than 500 nM for the second.

Cc1cnc(Nc2ccc(N3C[C@@H]4C[C@H]3CO4)nc2)nc1Nc1ccc2oc(=O)[nH]c2c1 [II-32, N4-(benzoxazolin-2-on-5-yl)-N2-[2-((1S,4S)-2-oxa-5-azabicyclo[2.2.1]heptan-5-yl)pyridin-5-yl]-5-methylpyrimidine-2,4-diamine] showed an IC50 of less than 500 nM.

Same assay, conditions: tested under conditions described in Example 3 (IL-2 stimulated human primary T-cell proliferation); read-out: ability to inhibit JAK3 activity, IC50 range (Table V)

First: COc1cc(Nc2ncc(C)c(Nc3ccc4oc(=O)n(COP(=O)(O)O)c4c3)n2)cc(C)c1F [Compound I-538, Sodium (5-(2-(4-fluoro-3-methoxy-5-methylphenylamino)-5-methylpyrimidin-4-ylamino)-2-oxobenzo[d]oxazol-3(2H)-yl)methyl phosphate]
Second: Cc1cnc(Nc2cnc(N3CCN(C)CC3)c(C)c2)nc1Nc1ccc2[nH]c(=O)[nH]c2c1 [II-27, N4-(benzimidazolin-2-on-5-yl)-N2-[3-methyl-2-(4-methylpiperazin-1-yl)pyridin-5-yl]-5-methylpyrimidine-2,4-diamine]
The IC50 of the first is higher: 500 to 5000 nM for the first, less than 500 nM for the second. The second is the more potent here.

Cc1cnc(Nc2ccc(N3CCN(C)CC3)nc2)nc1Nc1ccc2[nH]c(=O)[nH]c2c1 [II-15, N4-(benzimidazolin-2-on-5-yl)-N2-[2-(4-methylpiperazin-1-yl)pyridin-5-yl]-5-methylpyrimidine-2,4-diamine] and CN1CCN(c2ccc(Nc3ncc(F)c(Nc4ccc5[nH]c(=O)[nH]c5c4)n3)cn2)CC1 [II-16, N4-(benzimidazolin-2-on-5-yl)-N2-[2-(4-methylpiperazin-1-yl)pyridin-5-yl]-5-fluoropyrimidine-2,4-diamine] cannot be ordered by IC50: less than 500 nM for the first, less than 500 nM for the second.

Cc1cnc(Nc2ccc(N3CCOCC3)nc2)nc1Nc1ccc2oc(=O)[nH]c2c1 [II-17, N4-(benzo[d]oxazol-2(3H)-on-5-yl)-N2-((2-morpholinyl)pyridin-5-yl)-5-methylpyrimidine-2,4-diamine] and O=c1[nH]c2cc(Nc3nc(Nc4ccc(N5CCOCC5)nc4)ncc3F)ccc2o1 [II-18, N4-(benzo[d]oxazol-2(3H)-on-5-yl)-N2-((2-morpholinyl)pyridin-5-yl)-5-fluoropyrimidine-2,4-diamine] cannot be ordered by IC50: less than 500 nM for the first, less than 500 nM for the second.

Compared with O=c1[nH]c2ccc(Nc3nc(Nc4ccc(N5CCOCC5)nc4)ncc3F)cc2[nH]1 [II-19, N4-(benzimidazolin-2-on-5-yl)-N2-((2-morpholinyl)pyridin-5-yl)-5-fluoropyrimidine-2,4-diamine], CN1CCN(c2ccc(Nc3ncc(F)c(Nc4ccc5c(c4)n(C)c(=O)n5C)n3)cn2)CC1 [II-21, N4-(1,3-dimethylbenzimidazolin-2-on-5-yl)-N2-[2-(4-methylpiperazino)pyridin-5-yl]-5-fluoropyrimidine-2,4-diamine] is higher in IC50: less than 500 nM for the first, 500 to 5000 nM for the second. The first is the more potent here.

In the case of Cc1cnc(Nc2ccc(N3CCN(C)CC3)nc2)nc1Nc1ccc2c(c1)n(C)c(=O)n2C [II-20, N4-(1,3-dimethylbenzimidazolin-2-on-5-yl)-N2-[2-(4-methylpiperazino)pyridin-5-yl]-5-methylpyrimidine-2,4-diamine], the IC50 is reported as less than 500 nM.
